According to patent publication EP4032530B1, “PROLONGED-RELEASE FURAZIDIN COMPOSITION” (Adamed Pharma S.A., priority 2021, dated 2022):

Legend:
[1] = upon oral administration; cited from earlier work
[2] = Phase I pivotal food effect pharmacokinetic study FUR-PK-03-19 (755/19); assay type: in vivo, human; details: PK phase I studies
Procedure: Study title: Randomized, open-label, three-period, cross-over, food effect pharmacokinetic study comparing bioavailability of furazidin, prolonged-release tablets, 200 mg having a composition of IR/1+MR/1 according to Example 1 in healthy subjects in different fed conditions.
Aim of the study: The main study objective was to evaluate the pharmacokinetic properties and to compare the bioavailability of the Test product in healthy volunteers under different fed conditions.
Study conduct: In this bioavailability study, the pharmacokinetic profile was tested for the Test formulation (prolonged-release bilayer tablet, IR/1+MR/1) having a strength of 200 mg furazidin. The bioavailability study was carried out under different fed conditions (after a high-protein meal or after a high-fat, high-calorie meal) and in fasting state in 30 healthy subjects. On the day of dosing, the subjects received randomly after an overnight fast a single dose of the modified-release formulation, administered on empty stomach (fasting conditions, Treatment A) or after a high-protein meal (Treatment B) or after a high-fat, high-calorie meal (Treatment C), each time with 240 mL of water. For each subject, there were 3 dosing periods, separated by a washout period of 7 days. […]
The pharmacokinetic data for plasma and urine were statistically analysed in 29 subjects. […]

Escherichia coli = details: constant level, unchanged for several decades; cited from earlier work

## O=C1CN(/N=C/C=C/c2ccc([N+](=O)[O-])o2)C(=O)N1 [furazidin]
[1]
  half-life: below 1 hour
[2]
  site of absorption: mainly absorbed in the upper part of the small intestine
Escherichia coli
  susceptibility of Escherichia coli to furazidin: approx. 90%
